# Measured values as given in ChEMBL document CHEMBL4371034, “Design, synthesis, biological evaluation, structure-activity relationship, and toxicity of clinafloxacin-azole conjugates as novel antitubercular agents” (Bioorg Med Chem, 2019).
# pIC50: −log10 of the molar value. The source made the active and inactive calls. No cut-off for these calls is given here.
# Tests used:
# [1] = biological target: Voltage-gated inwardly rectifying potassium channel KCNH2 (Homo sapiens, UniProt Q12809); experiment: Inhibition of human ERG
# Voltage-gated inwardly rectifying potassium channel KCNH2, sequence (Q12809 whole entry): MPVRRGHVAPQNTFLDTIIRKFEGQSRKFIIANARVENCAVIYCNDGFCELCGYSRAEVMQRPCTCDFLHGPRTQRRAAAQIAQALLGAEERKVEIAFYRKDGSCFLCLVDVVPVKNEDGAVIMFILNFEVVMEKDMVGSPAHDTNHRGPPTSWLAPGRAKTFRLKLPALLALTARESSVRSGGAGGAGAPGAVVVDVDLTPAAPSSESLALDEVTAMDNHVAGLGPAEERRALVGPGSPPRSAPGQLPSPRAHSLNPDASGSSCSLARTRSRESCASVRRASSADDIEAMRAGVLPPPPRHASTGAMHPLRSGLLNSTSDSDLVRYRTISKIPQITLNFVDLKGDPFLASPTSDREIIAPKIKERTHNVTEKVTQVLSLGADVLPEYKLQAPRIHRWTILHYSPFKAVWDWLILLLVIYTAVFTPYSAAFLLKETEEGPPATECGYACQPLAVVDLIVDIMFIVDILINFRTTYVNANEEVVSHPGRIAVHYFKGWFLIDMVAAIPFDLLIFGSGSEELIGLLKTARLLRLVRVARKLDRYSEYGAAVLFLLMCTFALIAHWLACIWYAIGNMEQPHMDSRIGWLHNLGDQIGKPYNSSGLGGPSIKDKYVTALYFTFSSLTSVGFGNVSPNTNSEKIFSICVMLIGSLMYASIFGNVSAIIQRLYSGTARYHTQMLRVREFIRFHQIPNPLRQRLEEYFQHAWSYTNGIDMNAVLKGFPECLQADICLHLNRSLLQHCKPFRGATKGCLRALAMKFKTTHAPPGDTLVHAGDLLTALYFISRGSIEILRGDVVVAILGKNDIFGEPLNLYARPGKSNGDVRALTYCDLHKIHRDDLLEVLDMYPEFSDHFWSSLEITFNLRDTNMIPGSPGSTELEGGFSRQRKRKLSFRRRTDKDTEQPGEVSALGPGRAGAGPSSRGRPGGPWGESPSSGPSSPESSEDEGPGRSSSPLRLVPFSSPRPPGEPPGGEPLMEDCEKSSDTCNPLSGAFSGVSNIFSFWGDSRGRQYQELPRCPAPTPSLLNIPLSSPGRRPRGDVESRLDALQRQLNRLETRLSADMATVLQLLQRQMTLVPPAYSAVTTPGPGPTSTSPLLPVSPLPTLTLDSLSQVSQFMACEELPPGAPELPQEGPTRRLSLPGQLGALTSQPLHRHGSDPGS
# Salmonella [2] = experiment: Antibacterial activity against Salmonella S1.1152 measured after 120 days of sample dissolution by serial dilution method; type: functional
# [3] = system: Mycobacterium tuberculosis; experiment: Antitubercular activity against Mycobacterium tuberculosis H37Rv assessed as growth inhibition at 20 uM after 6 days by […]; type: functional; settings: 144 h, read-out: GI
# Staphylococcus aureus [4] = experiment: Antibacterial activity against Staphylococcus aureus ATCC 29213 measured after 120 days of sample dissolution by serial dilution method; type: functional
# Pseudomonas aeruginosa [5] = experiment: Antibacterial activity against Pseudomonas aeruginosa PS1.0050 assessed as diameter of zone of inhibition at 80 ug/ml after 18 hrs by agar diffusion method; type: functional; settings: for zone of inhibition at 80 µg/mL: PS1.0050, 18 h, read-out: DIZ
# Salmonella [6] = experiment: Antibacterial activity against Salmonella S1.1152 assessed as diameter of zone of inhibition at 80 ug/ml after 18 hrs by agar diffusion method; type: functional; settings: for zone of inhibition at 80 µg/mL: S1.1152, 18 h, read-out: DIZ
# Escherichia coli [7] = experiment: Antibacterial activity against duck Escherichia coli clinical isolates assessed as diameter of zone of inhibition at 80 ug/ml after 18 hrs by agar diffusion method; type: functional; settings: for zone of inhibition at 80 µg/mL: read-out: DIZ
# Escherichia coli [8] = experiment: Antibacterial activity against duck Escherichia coli clinical isolates measured after 120 days of sample dissolution by serial dilution method; type: functional
# [9] = Cytotoxicity against human HeLa cells assessed as growth inhibition at 20 uM by Celltiter-Glo luminescence assay; type: cell-based; settings: read-out: GI
# [10] = system: Mycobacterium tuberculosis; experiment: Antitubercular activity against Mycobacterium tuberculosis H37Rv after 6 days by […]; type: functional; settings: 144 h
# Staphylococcus aureus [11] = experiment: Antibacterial activity against Staphylococcus aureus ATCC 29213 assessed as diameter of zone of inhibition at 80 ug/ml after 18 hrs by agar diffusion method; type: functional; settings: for zone of inhibition at 80 µg/mL: ATCC 29213, 18 h, read-out: DIZ
# Pseudomonas aeruginosa [12] = experiment: Antibacterial activity against Pseudomonas aeruginosa PS1.0050 measured after 120 days of sample dissolution by serial dilution method; type: functional
# HeLa = experiment: Cytotoxicity against human HeLa cells by Celltiter-Glo luminescence assay; type: cell-based
smiles,measurement,setting,value
O=C(CCn1cnc2ccccc21)NC1CCN(c2c(F)cc3c(=O)c(C(=O)O)cn(C4CC4)c3c2Cl)C1 (centres undefined),pIC50,[1],< 6.00
O=C(Cn1cnnn1)NC1CCN(c2c(F)cc3c(=O)c(C(=O)O)cn(C4CC4)c3c2Cl)C1 (centres undefined),pIC50,[1],< 6.00
O=C(Cn1cccn1)NC1CCN(c2c(F)cc3c(=O)c(C(=O)O)cn(C4CC4)c3c2Cl)C1 (centres undefined),pIC50,[1],< 6.00
O=C(CCn1nccn1)NC1CCN(c2c(F)cc3c(=O)c(C(=O)O)cn(C4CC4)c3c2Cl)C1 (centres undefined),pIC50,[1],< 6.00
O=C(Cn1cnc2ccccc21)NC1CCN(c2c(F)cc3c(=O)c(C(=O)O)cn(C4CC4)c3c2Cl)C1 (centres undefined),pIC50,[1],< 6.00
Cc1nnnn1CCC(=O)NC1CCN(c2c(F)cc3c(=O)c(C(=O)O)cn(C4CC4)c3c2Cl)C1 (centres undefined),pIC50,[1],< 6.00
Cc1nccn1CCC(=O)NC1CCN(c2c(F)cc3c(=O)c(C(=O)O)cn(C4CC4)c3c2Cl)C1 (centres undefined),pIC50,[1],< 6.00
Cc1nnnn1CC(=O)NC1CCN(c2c(F)cc3c(=O)c(C(=O)O)cn(C4CC4)c3c2Cl)C1 (centres undefined),pIC50,[1],< 6.00
Nc1ccn(CC(=O)NC2CCN(c3c(F)cc4c(=O)c(C(=O)O)cn(C5CC5)c4c3Cl)C2)n1 (centres undefined),MIC,Salmonella [2],16 µg/mL
same,inhibition of growth at 20 µM,[3],98.5%
same,MIC,Staphylococcus aureus [4],16 µg/mL
same,zone of inhibition at 80 µg/mL,Pseudomonas aeruginosa [5],25 mm
same,zone of inhibition at 80 µg/mL,Salmonella [6],23 mm
same,zone of inhibition at 80 µg/mL,Escherichia coli [7],23 mm
same,MIC,Escherichia coli [8],> 16 µg/mL
same,inhibition at 20 µM,[9],-17.1%
same,MIC,[10],1.69 µM
same,zone of inhibition at 80 µg/mL,Staphylococcus aureus [11],23 mm
same,MIC,Pseudomonas aeruginosa [12],2 µg/mL
same,pIC50,[1],< 6.00
Cc1nccn1CC(=O)NC1CCN(c2c(F)cc3c(=O)c(C(=O)O)cn(C4CC4)c3c2Cl)C1 (centres undefined),pIC50,[1],< 6.00
Nc1nnc(SCC(=O)NC2CCN(c3c(F)cc4c(=O)c(C(=O)O)cn(C5CC5)c4c3Cl)C2)s1 (centres undefined),MIC,Salmonella [2],16 µg/mL
same,inhibition of growth at 20 µM,[3],99%
same,MIC,Staphylococcus aureus [4],8 µg/mL
same,zone of inhibition at 80 µg/mL,Pseudomonas aeruginosa [5],15 mm
same,zone of inhibition at 80 µg/mL,Salmonella [6],12 mm
same,zone of inhibition at 80 µg/mL,Escherichia coli [7],12 mm
same,pIC50,HeLa,< 4.70
same,MIC,Escherichia coli [8],> 16 µg/mL
same,inhibition at 20 µM,[9],-11.2%
same,MIC,[10],0.66 µM
same,zone of inhibition at 80 µg/mL,Staphylococcus aureus [11],12 mm
same,MIC,Pseudomonas aeruginosa [12],4 µg/mL
same,pIC50,[1],< 6.00
O=C(CCn1cncn1)NC1CCN(c2c(F)cc3c(=O)c(C(=O)O)cn(C4CC4)c3c2Cl)C1 (centres undefined),pIC50,[1],< 6.00
COc1ccc2[nH]c(SCC(=O)NC3CCN(c4c(F)cc5c(=O)c(C(=O)O)cn(C6CC6)c5c4Cl)C3)nc2c1 (centres undefined),pIC50,[1],< 6.00
Cn1nnc(SCC(=O)NC2CCN(c3c(F)cc4c(=O)c(C(=O)O)cn(C5CC5)c4c3Cl)C2)n1 (centres undefined),pIC50,[1],< 6.00
O=C(Cn1ncnn1)NC1CCN(c2c(F)cc3c(=O)c(C(=O)O)cn(C4CC4)c3c2Cl)C1 (centres undefined),pIC50,[1],< 6.00
Nc1nnc(SCCC(=O)NC2CCN(c3c(F)cc4c(=O)c(C(=O)O)cn(C5CC5)c4c3Cl)C2)s1 (centres undefined),inhibition of growth at 20 µM,[3],95.8%
same,diameter of the inhibition zone (DIZ),Pseudomonas aeruginosa [5],inactive
same,diameter of the inhibition zone (DIZ),Salmonella [6],inactive
same,diameter of the inhibition zone (DIZ),Escherichia coli [7],inactive
same,pIC50,HeLa,< 4.70
same,inhibition at 20 µM,[9],-21.2%
same,MIC,[10],3.9 µM
same,diameter of the inhibition zone (DIZ),Staphylococcus aureus [11],inactive
same,pIC50,[1],< 6.00
Nc1nnn(CC(=O)NC2CCN(c3c(F)cc4c(=O)c(C(=O)O)cn(C5CC5)c4c3Cl)C2)n1 (centres undefined),pIC50,[1],< 6.00
Nc1n[nH]c(SCC(=O)NC2CCN(c3c(F)cc4c(=O)c(C(=O)O)cn(C5CC5)c4c3Cl)C2)n1 (centres undefined),MIC,Salmonella [2],16 µg/mL
same,inhibition of growth at 20 µM,[3],98.2%
same,MIC,Staphylococcus aureus [4],16 µg/mL
same,zone of inhibition at 80 µg/mL,Pseudomonas aeruginosa [5],16 mm
same,zone of inhibition at 80 µg/mL,Salmonella [6],16 mm
same,zone of inhibition at 80 µg/mL,Escherichia coli [7],14 mm
same,pIC50,HeLa,< 4.70
same,MIC,Escherichia coli [8],> 16 µg/mL
same,inhibition at 20 µM,[9],-7.2%
same,MIC,[10],0.72 µM
same,zone of inhibition at 80 µg/mL,Staphylococcus aureus [11],16 mm
same,MIC,Pseudomonas aeruginosa [12],8 µg/mL
same,pIC50,[1],< 6.00
Cc1nnn(CCC(=O)NC2CCN(c3c(F)cc4c(=O)c(C(=O)O)cn(C5CC5)c4c3Cl)C2)n1 (centres undefined),pIC50,[1],< 6.00
Cc1cn(CCC(=O)NC2CCN(c3c(F)cc4c(=O)c(C(=O)O)cn(C5CC5)c4c3Cl)C2)cn1 (centres undefined),pIC50,[1],< 6.00
NC1CCN(c2c(F)cc3c(=O)c(C(=O)O)cn(C4CC4)c3c2Cl)C1 (centres undefined) [CLINAFLOXACIN],MIC,Salmonella [2],1 µg/mL
same,MIC,Staphylococcus aureus [4],1 µg/mL
same,zone of inhibition at 80 µg/mL,Pseudomonas aeruginosa [5],22 to 23 mm
same,zone of inhibition at 80 µg/mL,Salmonella [6],13 to 21 mm
same,zone of inhibition at 80 µg/mL,Escherichia coli [7],7 to 17 mm
same,MIC,Escherichia coli [8],2 µg/mL
same,zone of inhibition at 80 µg/mL,Staphylococcus aureus [11],22 mm
same,MIC,Pseudomonas aeruginosa [12],0.125 µg/mL
Nc1nnn(CCC(=O)NC2CCN(c3c(F)cc4c(=O)c(C(=O)O)cn(C5CC5)c4c3Cl)C2)n1 (centres undefined),pIC50,[1],< 6.00
O=C(CCn1cccn1)NC1CCN(c2c(F)cc3c(=O)c(C(=O)O)cn(C4CC4)c3c2Cl)C1 (centres undefined),pIC50,[1],< 6.00
O=C(CCn1ccnn1)NC1CCN(c2c(F)cc3c(=O)c(C(=O)O)cn(C4CC4)c3c2Cl)C1 (centres undefined),inhibition of growth at 20 µM,[3],96.9%
same,zone of inhibition at 80 µg/mL,Pseudomonas aeruginosa [5],14 mm
same,diameter of the inhibition zone (DIZ),Salmonella [6],inactive
same,diameter of the inhibition zone (DIZ),Escherichia coli [7],inactive
same,pIC50,HeLa,< 4.70
same,inhibition at 20 µM,[9],-9.5%
same,MIC,[10],2.95 µM
same,zone of inhibition at 80 µg/mL,Staphylococcus aureus [11],7 mm
same,pIC50,[1],< 6.00
O=C(Cn1ccnc1)NC1CCN(c2c(F)cc3c(=O)c(C(=O)O)cn(C4CC4)c3c2Cl)C1 (centres undefined),pIC50,[1],< 6.00
O=C(Cn1ccnn1)NC1CCN(c2c(F)cc3c(=O)c(C(=O)O)cn(C4CC4)c3c2Cl)C1 (centres undefined),MIC,Salmonella [2],16 µg/mL
same,inhibition of growth at 20 µM,[3],98.5%
same,MIC,Staphylococcus aureus [4],4 µg/mL
same,zone of inhibition at 80 µg/mL,Pseudomonas aeruginosa [5],19 mm
same,zone of inhibition at 80 µg/mL,Salmonella [6],19 mm
same,zone of inhibition at 80 µg/mL,Escherichia coli [7],16 mm
same,MIC,Escherichia coli [8],> 16 µg/mL
same,inhibition at 20 µM,[9],-10.1%
same,MIC,[10],2.28 µM
same,zone of inhibition at 80 µg/mL,Staphylococcus aureus [11],17 mm
same,MIC,Pseudomonas aeruginosa [12],1 µg/mL
same,pIC50,[1],< 6.00
Cc1cc(C)n(CC(=O)NC2CCN(c3c(F)cc4c(=O)c(C(=O)O)cn(C5CC5)c4c3Cl)C2)n1 (centres undefined),pIC50,[1],< 6.00
O=C(Cn1nccn1)NC1CCN(c2c(F)cc3c(=O)c(C(=O)O)cn(C4CC4)c3c2Cl)C1 (centres undefined),pIC50,[1],< 6.00
Cc1cc(C)n(CCC(=O)NC2CCN(c3c(F)cc4c(=O)c(C(=O)O)cn(C5CC5)c4c3Cl)C2)n1 (centres undefined),pIC50,[1],< 6.00
Cc1cn(CC(=O)NC2CCN(c3c(F)cc4c(=O)c(C(=O)O)cn(C5CC5)c4c3Cl)C2)cn1 (centres undefined),pIC50,[1],< 6.00
Cc1nnn(CC(=O)NC2CCN(c3c(F)cc4c(=O)c(C(=O)O)cn(C5CC5)c4c3Cl)C2)n1 (centres undefined),pIC50,[1],< 6.00
O=C(Cn1nnc2ccccc21)NC1CCN(c2c(F)cc3c(=O)c(C(=O)O)cn(C4CC4)c3c2Cl)C1 (centres undefined),pIC50,[1],< 6.00
O=C(CSc1nc2ccccc2[nH]1)NC1CCN(c2c(F)cc3c(=O)c(C(=O)O)cn(C4CC4)c3c2Cl)C1 (centres undefined),pIC50,[1],< 6.00
O=C(Cn1cncn1)NC1CCN(c2c(F)cc3c(=O)c(C(=O)O)cn(C4CC4)c3c2Cl)C1 (centres undefined),pIC50,[1],< 6.00
O=C(CCn1ccnc1)NC1CCN(c2c(F)cc3c(=O)c(C(=O)O)cn(C4CC4)c3c2Cl)C1 (centres undefined),pIC50,[1],< 6.00
